These results are taken from US20030073846A1, “Aminoalcohol derivatives” (priority 2000, published 2003).

Structures can show the parent of a compound that is named as a salt.

This experiment concerns anesthetized dog. The experiment can be described thus: Effect on the increase in intravesical pressure induced by carbachol in anesthetized dog. Format: in vivo. The conditions noted are these: for Increase in intravesical pressure: female Beagle dogs under halothane anesthesia, N = 3, P < 0.01 vs Control; for relaxation effect on the smooth muscle in the urinary bladder: conclusion in words from the test results of Test 1. The procedure:
Effect on the increase in intravesical pressure induced by carbachol in anesthetized dog
Female Beagle dogs weighing 8.0-15.0 kg were fasted for 24 hours and maintained under halothane anesthesia. A 12F Foley catheter was lubricated with water soluble jelly, inserted into the urethral orifice and advanced approximately 10 cm until the balloon tip was placed well inside the bladder. The balloon was then inflated with 5 ml of room air and catheter slowly withdrawn just part the first resistance that is felt at the bladder neck. Urine was completely drained out through the catheter, and 30 ml of biological saline was infused. The catheter was connected to pressure transducer, and intravesical pressure was continuously recorded. The test compound was injected intravenously at five minutes before the administration of carbachol (1.8 μg/kg).

Take `CC(C)(Cc1ccc(Oc2ccc(C(N)=O)cn2)cc1)NC[C@H](O)COc1cccc2[nH]c3ccccc3c12` [Test compound (2), (S)-4-[2-Hydroxy-3-[[2-[4-(5-carbamoyl-2-pyridyloxy)phenyl]-1,1-dimethylethyl]amino]propoxy]-carbazole hydrochloride]: the “relaxation effect on the smooth muscle in the urinary bladder” value is “possess a relaxation effect on the smooth muscle in the urinary bladder”. Moreover, the “Increase in intravesical pressure” value (0.100 mg/kg intravenously five minutes before carbachol (1.8 μg/kg), Control 6.9 ± 0.7) is 4.3 ± 0.3 mmHg.

With `OC[C@H](Cc1ccc(O)cc1)NC[C@H](O)COc1ccccc1` [Test compound (1), (S)-1-Phenoxy-3-[[(S)-1-hydroxy-3-(4-hydroxyphenyl)-2-propyl]amino]-2-propanol], the “relaxation effect on the smooth muscle in the urinary bladder” value is given as “possess a relaxation effect on the smooth muscle in the urinary bladder”. In addition, the “Increase in intravesical pressure” value (0.032 mg/kg intravenously five minutes before carbachol (1.8 μg/kg), Control 6.8 ± 1.1) stood at 2.0 ± 0.3 mmHg.
